Laboratory results published in US20250152591A1, “TREATMENT OF HEMATOLOGICAL MALIGNANCIES WITH MENIN INHIBITORS AND P-GLYCOPROTEIN INHIBITORS” (Kura Oncology, Inc., priority 2022, published 2025).
Read-outs that look alike come from different tables or passages of the source.

What was measured:
MV4;11-PGP cell line = experiment: CellTiter-Glo cell viability assay, MV4;11-PGP; type: cell-based; set-up: unit of the concentration uncertain
Protocol: (§1) The influence of efflux pumps on the antitumor activity of the test compounds at steady state (more clinically relevant) were evaluated using P-gp-transfected AML cells (MV4;11 cells) in 6-day viability assays.
(§2) A P-gp-expressing KMT2A(MLL)-rearranged cell line model was developed by lentiviral transduction of the MV4;11 parental cell line and then selection for either Luciferase ORF (MV4;11-Control) or P-gp ORF (MV4;11-PGP).
[…] Cell viability was measured by CellTiter-Glo® Luminescent Cell Viability Assay (CTG assay, Promega Corp.) and % Viability was quantified by normalizing to the luminescence values of DMSO-only treated cells. The dose-response curves and IC50's were calculated using GraphPad Prism 9.4.1.
The measured luminescence in the live cells of the MV4;11-Control and MV4;11-PGP cells that were treated with Compound I only (+DMSO), Compound I+posaconazole […], and valspodar (1 mM) are shown in FIGS. 5A and 5B.
In a second set of experiments, MV4;11-Control and MV4;11-PGP cell lines were treated as described above with five menin inhibitors, including Compound I, SNDX-5613, Compound A, Compound B, and Compound C, at concentrations ranging from 0 to 1000 nM. All tested compounds dropped in potency due to the P-gp expression as shown in FIGS. 6A-6J and in Tables 5 and 6 (indicated by increased IC50 values between “MV4;11-Control (Compound+DMSO)” and “MV4;11-PGP (Compound+DMSO)” entries).

[1] = test system: MV4;11 parental cell line; experiment: CellTiter-Glo cell viability assay, MV4;11 parental; type: cell-based; conditions: Homo sapiens, MV4-11, 144 h; Compound I only, 0 to 1000 nM, 6 days, Table 3
Protocol: as §1, §2
The MV4;11 parental, MV4;11-Control, and MV4;11-PGP cells were seeded on a 96-well plate and the cell lines were treated with Compound I at doses ranging from 0 to 1000 nM for 6 days. Cell viability was measured by CellTiter-Glo® Luminescent Cell Viability Assay (CTG assay, Promega Corp.) and % Viability was quantified by normalizing to the luminescence values of DMSO-only treated cells. The dose-response curves and IC50's were calculated using GraphPad Prism 9.4.1.

P-gp = P-gp (Homo sapiens, UniProt P08183); experiment: P-gp substrate assessment using MDR1-MDCK monolayers (Example 1, +/- valspodar); type: in vitro ADME; set-up: expressed in transfected cells; host or cells: MDR1-MDCK cells
Chain of P-gp (P08183 whole entry): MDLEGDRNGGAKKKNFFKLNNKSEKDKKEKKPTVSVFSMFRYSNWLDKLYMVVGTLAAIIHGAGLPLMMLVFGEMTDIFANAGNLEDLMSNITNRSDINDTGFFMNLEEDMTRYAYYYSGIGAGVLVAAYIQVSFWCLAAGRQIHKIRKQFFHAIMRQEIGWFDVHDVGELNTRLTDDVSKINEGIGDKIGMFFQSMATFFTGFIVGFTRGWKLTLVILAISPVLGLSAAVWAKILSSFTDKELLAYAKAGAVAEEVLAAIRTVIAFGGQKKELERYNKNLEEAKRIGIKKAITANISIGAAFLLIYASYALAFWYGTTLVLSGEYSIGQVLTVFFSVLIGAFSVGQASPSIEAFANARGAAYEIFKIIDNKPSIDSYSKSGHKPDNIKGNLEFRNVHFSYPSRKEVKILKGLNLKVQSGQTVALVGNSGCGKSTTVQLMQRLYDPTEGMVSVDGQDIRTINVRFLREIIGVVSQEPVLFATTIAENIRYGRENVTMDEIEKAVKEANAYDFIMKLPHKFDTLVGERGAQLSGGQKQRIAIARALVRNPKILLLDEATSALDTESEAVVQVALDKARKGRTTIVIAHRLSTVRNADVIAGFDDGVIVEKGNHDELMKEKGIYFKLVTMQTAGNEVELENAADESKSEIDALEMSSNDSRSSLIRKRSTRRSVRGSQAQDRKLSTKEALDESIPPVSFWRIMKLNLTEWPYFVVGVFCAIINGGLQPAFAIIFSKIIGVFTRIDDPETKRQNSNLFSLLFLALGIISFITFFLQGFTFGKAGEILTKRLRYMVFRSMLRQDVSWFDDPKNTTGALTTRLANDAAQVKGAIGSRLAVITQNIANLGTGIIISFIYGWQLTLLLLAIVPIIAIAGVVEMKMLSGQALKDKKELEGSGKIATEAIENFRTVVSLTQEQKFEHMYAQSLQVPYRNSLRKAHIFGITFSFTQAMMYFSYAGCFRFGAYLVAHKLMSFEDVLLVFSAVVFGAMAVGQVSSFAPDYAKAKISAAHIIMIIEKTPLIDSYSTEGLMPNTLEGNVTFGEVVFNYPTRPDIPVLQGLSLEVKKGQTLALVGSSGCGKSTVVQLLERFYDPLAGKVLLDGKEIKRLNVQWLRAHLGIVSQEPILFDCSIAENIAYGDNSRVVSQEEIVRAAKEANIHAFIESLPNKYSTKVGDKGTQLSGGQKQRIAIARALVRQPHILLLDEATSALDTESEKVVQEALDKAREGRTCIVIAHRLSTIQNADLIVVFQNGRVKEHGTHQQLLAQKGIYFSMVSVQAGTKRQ
Protocol: MDR1-MDCK cell monolayers were grown to confluence on collagen-coated, microporous membranes in 12-well assay plates. Details of the plates and their certification are shown below. The permeability assay buffer was Hanks' balanced salt solution (HBSS) containing 10 mM HEPES and 15 mM glucose at a pH of 7.4. The buffer in the receiver chamber also contained 1% bovine serum albumin. The dosing solution concentration was 5 μM of test article in the assay buffer+/−1 μM valspodar. Cells were first pre-incubated for 30 min with HBSS containing+/−1 μM valspodar. Cell monolayers were dosed on the apical side (A-to-B) or basolateral side (B-to-A) and incubated at 37° C. with 5% CO2 in a humidified incubator. Samples were taken from the donor and receiver chambers at 120 min. Each determination was performed in duplicate. The flux of lucifer yellow was also measured post-experimentally for each monolayer to ensure no damage was inflicted to the cell monolayers during the flux period. All samples were assayed by LC-MS/MS using electrospray ionization. Liquid chromatography conditions are summarized as follows: Column: Thermo BDS Hypersil C18 30×2.1 mm, […], with guard column; M.P. Buffer: 25 mM ammonium formate buffer, pH 3.5; Aqueous Reservoir (A): 90% water, 10% buffer; Organic Reservoir (B): 90% acetonitrile, 10% buffer; Flow Rate: 350 μL/minute; Total run time: 3.5 min; Autosampler: 10 μL injection volume; Autosampler wash: water/methanol/2-propanol: 1/1/1; with 0.2% formic acid.
The apparent permeability (Papp) and percent recovery were calculated as follows: […]
where, • dCr/dt is the slope of the cumulative concentration in the receiver compartment versus time in μM s^−1; • Vr is the volume of the receiver compartment in cm^3; • Vd is the volume of the donor compartment in cm^3; • A is the area of the insert (1.13 cm^2 for 12-well); • CA is the average of the nominal dosing concentration and the measured 120 minute donor concentration in μM; • CN is the nominal concentration of the dosing solution in μM; • Cr^final is the cumulative receiver concentration in μM at the end of the incubation period; • Cd^final is the concentration of the donor in μM at the end of the incubation period.
Efflux ratio (ER) is defined as Papp (B-to-A)/Papp (A-to-B).
• ER≥2.0 without valspodar, and reduced by ≥50% with valspodar: Positive • ER≥2.0 without valspodar, and reduced by <50% with valspodar: Negative • ER<2.0 without and with valspodar: Negative

SMILES: CNc1nc(NC2CCN(Cc3ccc4c(cc(C#N)n4C[C@H](C)N4CCN(S(C)(=O)=O)CC4)c3C)CC2)c2cc(CC(F)(F)F)sc2n1 [Compound I]
- IC50 (MV4;11-PGP cell line; 120 h, MV4;11-PGP, 5 days, Table 4, read-out: IC50 (Compound I + DMSO)): 33 nM
- IC50 (MV4;11-PGP cell line; 120 h, MV4;11-PGP, posaconazole (1.5 μM), 5 days, Table 4, read-out: IC50 (Compound I + Posaconazole)): 7.1 nM
- IC50 (MV4;11-PGP cell line; 120 h, MV4;11-PGP, valspodar (1 μM), 5 days, Table 4, read-out: IC50 (Compound I + Valspodar)): 4.7 nM
- IC50 (MV4;11-PGP cell line; 144 h, second set of experiments, 0 to 1000 nM, Table 5, read-out: IC50 MV4;11-PGP (Compound + DMSO)): 19.1 nM
- IC50 (MV4;11-PGP cell line; 144 h, second set of experiments, 0 to 1000 nM, Table 6, read-out: IC50 MV4;11-PGP (Compound + DMSO)): 19.9 nM
- IC50 (MV4;11-PGP cell line; second set of experiments, posaconazole (1.5 (unit uncertain)), Table 5, read-out: IC50 MV4;11-PGP (Compound + posaconazole)): 5.79 nM
- IC50 (MV4;11-PGP cell line; second set of experiments, valspodar (1 (unit uncertain)), Table 6, read-out: IC50 MV4;11-PGP (Compound + valspodar)): 5.64 nM
- IC50 [1]: 8.5 nM
- Papp Avg (P-gp; A-to-B, without valspodar): 0.09 10^−6 cm/s
- P-gp substrate (P-gp; MDR1-MDCK cell monolayers): substrate of P-gp
- P-gp Substrate Classification (P-gp; MDR1-MDCK, ER without and with valspodar): Positive (ER≥2.0 without valspodar, and reduced by ≥50% with valspodar)
- recovery at 120 min, 5 μM (P-gp; dog, MDCK-MDR1, pH 7.4, A-to-B, 5 μM test article, without valspodar): 70%
- recovery at 120 min, 5 μM (P-gp; dog, MDCK-MDR1, pH 7.4, B-to-A, 5 μM test article, without valspodar): 83%
- Papp B→A at 120 min, 5 μM (P-gp; dog, MDCK-MDR1, pH 7.4, B-to-A, without valspodar, read-out: Papp Avg): 9.41 ×10⁻⁶ cm/s
- Papp B→A at 120 min, 5 μM (P-gp; dog, MDCK-MDR1, pH 7.4, B-to-A, without valspodar, read-out: Papp R1): 6.43 ×10⁻⁶ cm/s
- Papp B→A at 120 min, 5 μM (P-gp; dog, MDCK-MDR1, pH 7.4, B-to-A, without valspodar, read-out: Papp R2): 9.21 ×10⁻⁶ cm/s
- Papp B→A at 120 min, 5 μM (P-gp; dog, MDCK-MDR1, pH 7.4, B-to-A, without valspodar, read-out: Papp R3): 12.6 ×10⁻⁶ cm/s
- recovery at 120 min, 5 μM (P-gp; dog, MDCK-MDR1, pH 7.4, with valspodar 1 μM, A-to-B, 5 μM test article + 1 μM valspodar): 53%
- recovery at 120 min, 5 μM (P-gp; dog, MDCK-MDR1, pH 7.4, with valspodar 1 μM, B-to-A, 5 μM test article + 1 μM valspodar): 118%
- Papp A→B at 120 min, 5 μM (P-gp; dog, MDCK-MDR1, pH 7.4, A-to-B, without valspodar): 0.09 ×10⁻⁶ cm/s
- efflux ratio at 120 min, 5 μM (P-gp; dog, MDCK-MDR1, pH 7.4, Papp (B-to-A)/Papp (A-to-B), without valspodar): 105
